In one assay the target is rat TAAR1 (Rattus norvegicus (Rat), UniProt Q923Y9). Kind of assay: Radioligand binding assay on rat TAAR1. Particulars: rat TAAR1 (second value of the cell), HEK-293 membranes; read-out: Ki (μM) mouse/rat. The method, then:
(§1) Construction of TAAR Expression Plasmids and Stably Transfected Cell Lines
(§2) For the construction of expression plasmids the coding sequences of human, rat and mouse TAAR 1 were amplified from genomic DNA essentially as described by Lindemann et al.. The Expand High Fidelity PCR System (Roche Diagnostics) was used with 1.5 mM Mg^2+ and purified PCR products were cloned into pCR2.1-TOPO cloning vector (Invitrogen) following the instructions of the manufacturer. PCR products were subcloned into the pIRESneo2 vector (BD Clontech, Palo Alto, Calif.), and expression vectors were sequence verified before introduction in cell lines.
(§3) HEK293 cells (ATCC #CRL-1573) were cultured essentially as described by Lindemann et al. (2005). For the generation of stably transfected cell lines HEK293 cells were transfected with the pIRESneo2 expression plasmids containing the TAAR coding sequences (described above) with Lipofectamine 2000 (Invitrogen) according to the instructions of the manufacturer, and 24 hrs post transfection the culture medium was supplemented with 1 mg/ml G418 (Sigma, Buchs, Switzerland). After a culture period of about 10 d clones were isolated, expanded and tested for responsiveness to trace amines (all compounds purchased from Sigma) with the cAMP Biotrak Enzyme immunoassay (EIA) System (Amersham) following the non-acetylation EIA procedure provided by the manufacturer.
Radioligand Binding Assay on Rat TAAR1
Membrane Preparation and Radioligand Binding
(§4) HEK-293 cells stably expressing rat TAAR1 were maintained at 37° C. and 5% CO2 in DMEM high glucose medium, containing fetal calf serum (10%, heat inactivated for 30 min at 56° C.), penicillin/streptomycin (1%), and 375 μg/ml geneticin (Gibco). Cells were released from culture flasks using trypsin/EDTA, harvested, washed twice with ice-cold PBS (without Ca^2+ and Mg^2+), pelleted at 1,000 rpm for 5 min at 4° C., frozen and stored at −80° C. Frozen pellets were suspended in 20 ml HEPES-NaOH (20 mM, pH 7.4) containing 10 mM EDTA and homogenized with a Polytron (PT 6000, Kinematica) at 14,000 rpm for 20 s. The homogenate was centrifuged at 48,000×g for 30 min at 4° C. Subsequently, the supernatant was removed and discarded, and the pellet resuspended in 20 ml HEPES-NaOH (20 mM, pH 7.4) containing 0.1 mM EDTA using the Polytron (20 s at 14,000 rpm). This procedure was repeated and the final pellet resuspended in HEPES-NaOH containing 0.1 mM EDTA and homogenized using the Polytron. Typically, aliquots of 2 ml membrane portions were stored at −80° C. With each new membrane batch the dissociation constant (Kd) was determined via a saturation curve. […] All compounds were tested at a broad range of concentrations (10 pM to 10 μM) in duplicates. […] The 96 deep well plates were incubated for 1 hr at 4° C. Incubations were terminated by rapid filtration through Unifilter-96 plates (Packard Instrument Company) and glass filters GF/C (Perkin Elmer) presoaked for 1 hr in polyethylenimine (0.3%) and washed 3 times with 1 ml of cold binding buffer. After addition of 45 μl of Microscint 40 (PerkinElmer) the Unifilter-96 plate was sealed and after 1 hr the ratioactivity counted using a TopCount Microplate Scintillation Counter (Packard Instrument Company).

The target of a further assay is mouse TAAR1 (Mus musculus (Mouse), UniProt Q923Y8). Briefly: Radioligand binding assay on mouse TAAR1. The following applies: mouse TAAR1 (first value of the cell), HEK-293 membranes; read-out: Ki (μM) mouse/rat. The protocol:
as §1, §2, §3
Radioligand Binding Assay on Mouse TAAR1
Membrane Preparation and Radioligand Binding.
as §4, with “expressing mouse” for “expressing rat”

Each structure is given as a SMILES string.

mouse TAAR1, sequence (Q923Y8 whole entry): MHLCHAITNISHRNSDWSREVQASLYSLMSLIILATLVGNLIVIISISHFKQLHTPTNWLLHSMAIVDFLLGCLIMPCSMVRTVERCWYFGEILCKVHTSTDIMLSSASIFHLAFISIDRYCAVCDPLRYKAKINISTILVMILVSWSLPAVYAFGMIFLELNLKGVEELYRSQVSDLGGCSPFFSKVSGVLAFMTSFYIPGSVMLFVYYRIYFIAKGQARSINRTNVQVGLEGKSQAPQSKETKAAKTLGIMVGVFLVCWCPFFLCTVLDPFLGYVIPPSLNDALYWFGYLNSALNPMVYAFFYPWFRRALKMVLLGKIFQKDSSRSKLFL
rat TAAR1, sequence (Q923Y9 whole entry): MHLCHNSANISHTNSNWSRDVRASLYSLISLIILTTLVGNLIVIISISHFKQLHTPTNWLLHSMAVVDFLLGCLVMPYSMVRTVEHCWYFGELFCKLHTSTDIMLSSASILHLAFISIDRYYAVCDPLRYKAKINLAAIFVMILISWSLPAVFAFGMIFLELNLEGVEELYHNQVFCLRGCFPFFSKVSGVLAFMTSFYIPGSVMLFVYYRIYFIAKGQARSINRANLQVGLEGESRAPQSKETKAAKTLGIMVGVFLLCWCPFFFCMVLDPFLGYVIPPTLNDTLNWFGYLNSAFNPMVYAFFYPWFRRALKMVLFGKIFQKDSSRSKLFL

As to `c1cc(C2CC2)nc(Nc2ccc([C@@H]3CNCCO3)cc2)n1` [Example 189, (4-Cyclopropyl-pyrimidin-2-yl)-((R)-4-morpholin-2-yl-phenyl)-amine], the Ki came out at 0.0605 µM on rat TAAR1 and 0.109 µM at mouse TAAR1.

As to `Clc1ccc(Nc2ccc(C3CNCCO3)cc2)nc1` (racemic) [Example 5, (RS)-(5-Chloro-pyridin-2-yl)-(4-morpholin-2-yl-phenyl)-amine], the Ki at rat TAAR1 was 0.029 µM; at mouse TAAR1 it was 0.0011 µM.

As for `Clc1ccc(Nc2ccc(C3CNCCO3)cn2)nc1` (racemic) [Example 90, (RS)-5-Chloro-N-(5-(morpholin-2-yl)pyridin-2-yl)pyridin-2-amine], the results for the Ki at rat TAAR1 and at mouse TAAR1 were 0.232 µM and 0.0196 µM, respectively.

For `Fc1cc([C@@H]2CNCCO2)ccc1Nc1ncc(OCC(F)(F)F)cn1` [Example 144, ((R)-2-Fluoro-4-morpholin-2-yl-phenyl)-[5-(2,2,2-trifluoro-ethoxy)-pyrimidin-2-yl]-amine], the Ki on rat TAAR1 was 0.0049 µM; on mouse TAAR1, 0.0042 µM.

Take `Clc1ccc(CCNc2ccc([C@H]3CNCCO3)cc2)cc1` [Example 34, [2-(4-Chloro-phenyl)-ethyl]-((S)-4-morpholin-2-yl-phenyl)-amine]: the Ki at rat TAAR1 is 0.0181 µM; at mouse TAAR1 it was 0.0042 µM.

On to `FC(F)(F)c1ccc(CNc2ccc([C@H]3CNCCO3)cc2)cc1` [Example 24, ((S)-4-Morpholin-2-yl-phenyl)-(4-trifluoromethyl-benzyl)-amine], for which the Ki at rat TAAR1 turned out to be 0.149 µM; at mouse TAAR1, 0.0119 µM.

For `c1ccc2cc(Nc3ccc([C@H]4CNCCO4)cc3)ccc2c1` [Example 44, ((S)-4-Morpholin-2-yl-phenyl)-naphthalen-2-yl-amine], the Ki at rat TAAR1 is 0.0118 µM; at mouse TAAR1 it was 0.0007 µM.

`c1cc([C@@H]2CNCCO2)ccc1Nc1ncc(OCC2CC2)cn1` [Example 125, (R)-5-(Cyclopropylmethoxy)-N-(4-(morpholin-2-yl)phenyl)pyrimidin-2-amine]: the Ki on rat TAAR1 is 0.0278 µM; at mouse TAAR1, 0.0045 µM.

For `COc1ccc(-c2cnc(Nc3ccc([C@@H]4CNCCO4)cc3)nc2)cc1OC` [Example 142], the Ki was 0.0146 µM at rat TAAR1 and 0.0027 µM on mouse TAAR1.

`Brc1ccc(Nc2ccc([C@H]3CNCCO3)cc2)nc1` [Example 10, (S)-5-Bromo-N-(4-(morpholin-2-yl)phenyl)pyridin-2-amine]: the results for the Ki at rat TAAR1 and on mouse TAAR1 were 0.0337 µM and 0.0015 µM, respectively.

Take `c1ccc2nc(Nc3ccc([C@H]4CNCCO4)cc3)ccc2c1` [Example 46, ((S)-4-Morpholin-2-yl-phenyl)-quinolin-2-yl-amine]: the Ki is 0.0643 µM at rat TAAR1 and 0.0008 µM on mouse TAAR1.

In the case of `Cc1cc(Nc2ccc(C3CNCCO3)cc2C)ncc1Cl` (racemic) [Example 84, (RS)-5-Chloro-4-methyl-N-(2-methyl-4-(morpholin-2-yl)phenyl)pyridin-2-amine], the Ki at rat TAAR1 worked out at 0.057 µM; on mouse TAAR1, 0.0015 µM.

For `Cn1cc(Br)c(Nc2ccc(C3CNCCO3)cc2)n1` (racemic) [Example 143, (RS)-(4-Bromo-1-methyl-1H-pyrazol-3-yl)-(4-morpholin-2-yl-phenyl)-amine], the Ki at rat TAAR1 is 0.284 µM; on mouse TAAR1, 0.418 µM.

Turning to `Fc1cc(C2CNCCO2)ccc1Nc1ncc(C(F)(F)F)cn1` (racemic) [Example 121, (RS)-(2-Fluoro-4-morpholin-2-yl-phenyl)-(5-trifluoromethyl-pyrimidin-2-yl)-amine], the Ki worked out at 0.0096 µM on rat TAAR1 and 0.0058 µM on mouse TAAR1.

Take `CCc1cnc(Nc2ccc(C3CNCCO3)cc2F)nc1` (racemic) [Example 97, (RS)-5-Ethyl-N-(2-fluoro-4-(morpholin-2-yl)phenyl)pyrimidin-2-amine]: the Ki at rat TAAR1 was found to be 0.0056 µM; at mouse TAAR1, 0.0029 µM.

For the compound `Clc1cc(Nc2ccc([C@@H]3CNCCO3)cc2)ncn1` [Example 199, (R)-6-Chloro-N-(4-(morpholin-2-yl)phenyl)pyrimidin-4-amine], the Ki was 0.056 µM at rat TAAR1 and 0.0231 µM on mouse TAAR1.

In the case of `Fc1cc(Cl)cnc1Nc1ccc([C@H]2CNCCO2)cc1` [Example 77, (S)-5-Chloro-3-fluoro-N-(4-(morpholin-2-yl)phenyl)pyridin-2-amine], the Ki on rat TAAR1 came to 0.13 µM; at mouse TAAR1 it was 0.0053 µM.

As for `Fc1cc([C@@H]2CNCCO2)ccc1Nc1ncc(Cl)cn1` [Example 130, (5-Chloro-pyrimidin-2-yl)-((R)-2-fluoro-4-morpholin-2-yl-phenyl)-amine], the results for the Ki on rat TAAR1 and on mouse TAAR1 were 0.0199 µM and 0.0051 µM, respectively.

For the compound `FC(F)(F)COc1ccnc(Nc2ccc([C@H]3CNCCO3)cc2)n1` [Example 187, ((S)-4-Morpholin-2-yl-phenyl)-[4-(2,2,2-trifluoro-ethoxy)-pyrimidin-2-yl]-amine], the results for the Ki on rat TAAR1 and on mouse TAAR1 were 0.01 µM and 0.0021 µM, respectively.

Consider `COc1ccnc(Nc2ccc([C@H]3CNCCO3)cc2)c1` [Example 39, (S)-4-Methoxy-N-(4-(morpholin-2-yl)phenyl)pyridin-2-amine], for which the Ki was determined as 0.251 µM on rat TAAR1 and 0.004 µM at mouse TAAR1.

For `Clc1cc(Nc2ncc(C3CC3)cn2)ccc1[C@@H]1CNCCO1` [Example 194, ((R)-3-Chloro-4-morpholin-2-yl-phenyl)-(5-cyclopropyl-pyrimidin-2-yl)-amine], the values for the Ki at rat TAAR1 and on mouse TAAR1 were 0.0011 µM and 0.0021 µM, respectively.

Turning to `Brc1ccc(CNc2ccc([C@H]3CNCCO3)cc2)nc1` [Example 27, (5-Bromo-pyridin-2-ylmethyl)-((S)-4-morpholin-2-yl-phenyl)-amine], the Ki at rat TAAR1 amounted to 0.808 µM; on mouse TAAR1 it was 0.0438 µM.

As for `CCc1cnc(Nc2ccc([C@H]3CNCCO3)cc2)nc1` [Example 15, (5-Ethyl-pyrimidin-2-yl)-((S)-4-morpholin-2-yl-phenyl)-amine], the Ki on rat TAAR1 stood at 0.0466 µM; at mouse TAAR1, 0.0028 µM.

In the case of `FC(F)(F)c1ccc(Nc2ccc([C@H]3CNCCO3)cc2)nc1` [Example 11, (S)—N-(4-(Morpholin-2-yl)phenyl)-5-(trifluoromethyl)pyridin-2-amine], the Ki amounted to 0.0233 µM on rat TAAR1 and 0.0015 µM on mouse TAAR1.

For the compound `Brc1cccc2nc(Nc3ccc([C@H]4CNCCO4)cc3)ccc12` [Example 53, (S)-5-Bromo-N-(4-(morpholin-2-yl)phenyl)quinolin-2-amine], the Ki at rat TAAR1 was found to be 0.0045 µM; on mouse TAAR1, 0.0012 µM.

Take `Cc1nc(Nc2ccc([C@H]3CNCCO3)cc2)ncc1C(C)C` [Example 73, (5-Isopropyl-4-methyl-pyrimidin-2-yl)-((S)-4-morpholin-2-yl-phenyl)-amine]: the Ki at rat TAAR1 came to 0.035 µM; on mouse TAAR1 it was 0.0096 µM.

For the origin of these results see US8802673B2, “Heterocyclic amine derivatives” (Hoffmann-La Roche Inc, priority 2011, dated 2014).
